Patent US5488060A, “Substituted thiadiazoles, compositions containing them and their use as antimicrobial and marine antifouling agents” (The Dow Chemical Company, priority 1994, dated 1996)
≈ marks a conversion by molar mass, not a printed value. Where two headings read alike, the source gives them in different places.

Experiments:
Type in all cases: cell-based
[1] = tested on: Pseudomonas aeruginosa (Pa); assay: Minimum inhibitory concentration (MIC) in nutrient agar, Pseudomonas aeruginosa; settings: 30° C., 48 hours, read-out: Minimum Inhibitory Concentration, Pa
Outline: (§1)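 Growth inhibition was scored visually after 48 h at 30° C on agar plates containing the test compound. Compound was incorporated at final concentrations from 500 to 1.0 ppm into nutrient agar at pH 6.8 and pH 8.2, and replicator-inoculated with bacterial suspensions at 10^8 CFU/mL.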

[2] = tested on: Saccharomyces cerevisiae (Sc); assay: Minimum inhibitory concentration (MIC) in malt yeast agar, Saccharomyces cerevisiae; settings: pH 5.5, malt yeast agar, 30° C., 48 hours for yeast, read-out: Minimum Inhibitory Concentration, SC
Outline: (§2)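 Agar dilution: test compound from a 1% acetone/water solution was mixed into malt yeast agar (pH 5.5) at 48 °C to final […], 25, 10, 5, 2.5, 1.0 and zero ppm. Plates dried 24 h, were replicator-inoculated with 1:9 saline-diluted suspensions of 7-day 30 °C cultures, and were read after 72 h (fungi) or 48 h (yeast) at 30 °C.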

Proteus vulgaris (Pv) = assay: Minimum inhibitory concentration (MIC) in nutrient agar, Proteus vulgaris
Outline: as §1

Escherichia coli (Ec) = assay: Minimum inhibitory concentration (MIC) in nutrient agar, Escherichia coli
Outline: as §1

[3] = tested on: Staphylococcus aureus (Sa); assay: Minimum inhibitory concentration (MIC) in nutrient agar, Staphylococcus aureus
Outline: as §1

[4] = tested on: Penicillium chrysogenum (Pc); assay: Minimum inhibitory concentration (MIC) in malt yeast agar, Penicillium chrysogenum
Outline: (§3)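 Compound (1% acetone/water solution) incorporated into pH 5.5 malt yeast agar at 0–500 ppm; plates inoculated by replicator with 1:9-diluted saline suspensions of 7-day fungal cultures. Incubated at 30° C and read at 72 hours; MIC is the lowest concentration inhibiting growth.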

[5] = tested on: Enterobacter aerogenes (Ea); assay: Minimum inhibitory concentration (MIC) in nutrient agar, Enterobacter aerogenes; settings: Klebsiella aerogenes
Outline: as §1

[6] = tested on: Aureobasidium pullulan (Ap); assay: Minimum inhibitory concentration (MIC) in malt yeast agar, Aureobasidium pullulan
Outline: as §3

Candida albicans (Ca) = assay: Minimum inhibitory concentration (MIC) in malt yeast agar, Candida albicans
Outline: as §2

[7] = tested on: Salmonella choleraesuis (Se); assay: Minimum inhibitory concentration (MIC) in nutrient agar, Salmonella choleraesuis; settings: Salmonella enterica
Outline: as §1

Fusarium oxysporum (Fo) = assay: Minimum inhibitory concentration (MIC) in malt yeast agar, Fusarium oxysporum
Outline: as §3

Trichoderma viride (Tv) = assay: Minimum inhibitory concentration (MIC) in malt yeast agar, Trichoderma viride
Outline: as §3

[8] = tested on: Klebsiella pneumoniae (Kp); assay: Minimum inhibitory concentration (MIC) in nutrient agar, Klebsiella pneumoniae
Outline: as §1

[9] = tested on: Pseudomonas aeruginosa (PRD-10); assay: Minimum inhibitory concentration (MIC) in nutrient agar, Pseudomonas aeruginosa PRD-10
Outline: as §1

Aspergillus niger (An) = assay: Minimum inhibitory concentration (MIC) in malt yeast agar, Aspergillus niger
Outline: as §3

Bacillus subtilis (Bs) = assay: Minimum inhibitory concentration (MIC) in nutrient agar, Bacillus subtilis
Outline: as §1

[10] = 48 h, pH 6.8, read-out: Minimum Inhibitory Concentration, Pv
[11] = 48 h, pH 8.2, read-out: Minimum Inhibitory Concentration, Pv
[12] = 48 h, pH 6.8, read-out: Minimum Inhibitory Concentration, Ec
[13] = 48 h, pH 8.2, read-out: Minimum Inhibitory Concentration, Ec
[14] = 48 h, pH 8.2, read-out: Minimum Inhibitory Concentration, Sa
[15] = pH 6.8, nutrient agar, 30° C., 48 hours, read-out: Minimum Inhibitory Concentration, Sa
[16] = pH 5.5, malt yeast agar, 30° C., 72 hours for fungi, read-out: Minimum Inhibitory Concentration, PC
[17] = 48 h, pH 6.8, read-out: Minimum Inhibitory Concentration, Ea
[18] = 48 h, pH 8.2, read-out: Minimum Inhibitory Concentration, Ea
[19] = pH 5.5, read-out: Minimum Inhibitory Concentration, Ap
[20] = pH 5.5, malt yeast agar, 30° C., 48 hours for yeast, read-out: Minimum Inhibitory Concentration, Ca
[21] = 48 h, pH 6.8, read-out: Minimum Inhibitory Concentration, SC
[22] = 48 h, pH 8.2, read-out: Minimum Inhibitory Concentration, SC
[23] = 72 h, pH 5.5, read-out: Minimum Inhibitory Concentration, Tv
[24] = 48 h, pH 8.2, read-out: Minimum Inhibitory Concentration, Kp
[25] = pH 6.8, nutrient agar, 30° C., 48 hours, read-out: Minimum Inhibitory Concentration, Kp
[26] = 48 h, pH 6.8, read-out: Minimum Inhibitory Concentration, PRD
[27] = 48 h, pH 8.2, read-out: Minimum Inhibitory Concentration, PRD
[28] = pH 5.5, malt yeast agar, 30° C., 72 hours for fungi, read-out: Minimum Inhibitory Concentration, An
[29] = 48 h, pH 8.2, read-out: Minimum Inhibitory Concentration, Bs
[30] = pH 6.8, nutrient agar, 30° C., 48 hours, read-out: Minimum Inhibitory Concentration, Bs
[31] = pH 8.2, nutrient agar, 30° C., 48 hours, read-out: Minimum Inhibitory Concentration, Sa
[32] = 72 h, pH 5.5, read-out: Minimum Inhibitory Concentration, PC
[33] = pH 5.5, malt yeast agar, 30° C., read-out: Minimum Inhibitory Concentration, Ap
[34] = pH 5.5, malt yeast agar, 30° C., 72 hours for fungi, read-out: Minimum Inhibitory Concentration, Fo
[35] = pH 8.2, nutrient agar, 30° C., 48 hours, read-out: Minimum Inhibitory Concentration, Bs
[36] = 48 h, pH 5.5, read-out: Minimum Inhibitory Concentration, Ca
[37] = pH 5.5, malt yeast agar, 30° C., 72 hours for fungi, read-out: Minimum Inhibitory Concentration, Tv

Row | SMILES | MIC ([1]; pH 6.8, nutrient agar) | MIC ([1]; pH 8.2, nutrient agar) | MIC [2] | MIC (Proteus vulgaris (Pv); [10]) | MIC (Proteus vulgaris (Pv); [11]) | MIC (Escherichia coli (Ec); [12]) | MIC (Escherichia coli (Ec); [13]) | MIC [3, 14] | MIC [3, 15] | MIC [5, 17] | MIC [5, 18] | MIC [7, 21] | MIC [7, 22] | MIC [8, 24] | MIC [8, 25] | MIC [9, 26] | MIC [9, 27] | MIC (Aspergillus niger (An); [28]) | MIC (Bacillus subtilis (Bs); [30]) | MIC (Fusarium oxysporum (Fo); [34]) | also measured
1 | CS(=O)(=O)c1ccc(-c2nsnc2SC#N)cc1 [Example XI, 4-(4-Methylsulfonylphenyl)-3-thiocyanato-l,2,5-thiadiazole] | 500 µg/mL (≈ 1680 µM) | 500 µg/mL (≈ 1680 µM) | 250 µg/mL (≈ 841 µM) | 500 µg/mL (≈ 1680 µM) | 500 µg/mL (≈ 1680 µM) | 500 µg/mL (≈ 1680 µM) | 500 µg/mL (≈ 1680 µM) | 500 µg/mL (≈ 1680 µM) | 100 µg/mL (≈ 336 µM) | 500 µg/mL (≈ 1680 µM) | 500 µg/mL (≈ 1680 µM) | 500 µg/mL (≈ 1680 µM) | 500 µg/mL (≈ 1680 µM) | 500 µg/mL (≈ 1680 µM) | 250 µg/mL (≈ 841 µM) | 500 µg/mL (≈ 1680 µM) | 500 µg/mL (≈ 1680 µM) | 500 µg/mL (≈ 1680 µM) | 25 µg/mL (≈ 84.1 µM) |  | MIC [4, 16]: 500 µg/mL (≈ 1680 µM); MIC [6, 19]: 50 µg/mL (≈ 168 µM); MIC (Candida albicans (Ca); [20]): 500 µg/mL (≈ 1680 µM); MIC (Fusarium oxysporum (Fo); 72 h, pH 5.5, read-out: Minimum Inhibitory Concentration, Fo): 100 µg/mL (≈ 336 µM); MIC (Trichoderma viride (Tv); [23]): 250 µg/mL (≈ 841 µM); MIC (Bacillus subtilis (Bs); [29]): 500 µg/mL (≈ 1680 µM)
2 | N#CSc1nsnc1-c1ccc([N+](=O)[O-])cc1 [Example XIII, 4-(4-nitrophenyl)-3-thiocyanato-1,2,5-thiadiazole] | 500 µg/mL (≈ 1890 µM) | > 100 µg/mL | < 10 µg/mL | 500 µg/mL (≈ 1890 µM) |  | 500 µg/mL (≈ 1890 µM) |  |  |  | 500 µg/mL (≈ 1890 µM) |  | 500 µg/mL (≈ 1890 µM) |  |  | 100 µg/mL (≈ 378 µM) | 500 µg/mL (≈ 1890 µM) |  | < 10 µg/mL | 25 µg/mL (≈ 94.6 µM) | < 10 µg/mL | MIC (Proteus vulgaris (Pv); pH 8.2, nutrient agar, 30° C., 48 hours, read-out: Minimum Inhibitory Concentration, Pv): > 100 µg/mL; MIC (Escherichia coli (Ec); pH 8.2, nutrient agar, 30° C., 48 hours, read-out: Minimum Inhibitory Concentration, Ec): > 100 µg/mL; MIC ([3]; 48 h, pH 6.8, read-out: Minimum Inhibitory Concentration, Sa): 50 µg/mL (≈ 189 µM); MIC [3, 31]: > 100 µg/mL; MIC [4, 32]: < 10 µg/mL; MIC ([5]; pH 8.2, nutrient agar, 30° C., 48 hours, read-out: Minimum Inhibitory Concentration, Ea): > 100 µg/mL; MIC [6, 33]: < 10 µg/mL; MIC (Candida albicans (Ca); [20]): < 10 µg/mL; MIC ([7]; pH 8.2, nutrient agar, 30° C., 48 hours, read-out: Minimum Inhibitory Concentration, SC): > 100 µg/mL; MIC (Trichoderma viride (Tv); [23]): < 10 µg/mL; MIC ([8]; pH 8.2, nutrient agar, 30° C., 48 hours, read-out: Minimum Inhibitory Concentration, Kp): > 100 µg/mL; MIC ([9]; pH 8.2, nutrient agar, 30° C., 48 hours, read-out: Minimum Inhibitory Concentration, PRD): > 100 µg/mL; MIC (Bacillus subtilis (Bs); [35]): > 100 µg/mL
3 | N#CSc1nsnc1-c1cccs1 [Example XIV, 4-(2-Thiophene)-3-thiocyanato-1,2,5-thiadiazole] | 500 µg/mL (≈ 2220 µM) | 500 µg/mL (≈ 2220 µM) | < 10 µg/mL |  | 500 µg/mL (≈ 2220 µM) | 50 µg/mL (≈ 222 µM) | 500 µg/mL (≈ 2220 µM) | 500 µg/mL (≈ 2220 µM) | 25 µg/mL (≈ 111 µM) |  | 500 µg/mL (≈ 2220 µM) |  | 500 µg/mL (≈ 2220 µM) | 500 µg/mL (≈ 2220 µM) | 25 µg/mL (≈ 111 µM) | 500 µg/mL (≈ 2220 µM) | 500 µg/mL (≈ 2220 µM) | < 10 µg/mL | 25 µg/mL (≈ 111 µM) | < 10 µg/mL | MIC (Proteus vulgaris (Pv); pH 6.8, nutrient agar, 30° C., 48 hours, read-out: Minimum Inhibitory Concentration, Pv): 50 µg/mL (≈ 222 µM); MIC [4, 32]: < 10 µg/mL; MIC ([5]; pH 6.8, nutrient agar, 30° C., 48 hours, read-out: Minimum Inhibitory Concentration, Ea): 100 µg/mL (≈ 444 µM); MIC [6, 33]: < 10 µg/mL; MIC (Candida albicans (Ca); [36]): 25 µg/mL (≈ 111 µM); MIC ([7]; pH 6.8, nutrient agar, 30° C., 48 hours, read-out: Minimum Inhibitory Concentration, SC): 50 µg/mL (≈ 222 µM); MIC (Trichoderma viride (Tv); [23]): < 10 µg/mL; MIC (Bacillus subtilis (Bs); [35]): 100 µg/mL (≈ 444 µM)
4 | N#CSCSc1nsnc1-c1cccc(Cl)c1 [Example XIX, 4-(3-Chlorophenyl)-3-thiocyanatomethylthio-1,2,5-thiadiazole] | 500 µg/mL (≈ 1670 µM) | > 500 µg/mL | 1 µg/mL (≈ 3.34 µM) | 500 µg/mL (≈ 1670 µM) | > 500 µg/mL | 500 µg/mL (≈ 1670 µM) | 500 µg/mL (≈ 1670 µM) |  | 9 µg/mL (≈ 30 µM) | 500 µg/mL (≈ 1670 µM) | > 500 µg/mL | 500 µg/mL (≈ 1670 µM) | > 500 µg/mL | > 500 µg/mL | 500 µg/mL (≈ 1670 µM) | 500 µg/mL (≈ 1670 µM) | > 500 µg/mL | 5 µg/mL (≈ 16.7 µM) | 9 µg/mL (≈ 30 µM) | 500 µg/mL (≈ 1670 µM) | MIC [3, 31]: 9 µg/mL (≈ 30 µM); MIC [4, 32]: 2.5 µg/mL (≈ 8.34 µM); MIC [6, 19]: 2.5 µg/mL (≈ 8.34 µM); MIC (Candida albicans (Ca); [36]): 25 µg/mL (≈ 83.4 µM); MIC (Trichoderma viride (Tv); [37]): > 500 µg/mL; MIC (Bacillus subtilis (Bs); [35]): 9 µg/mL (≈ 30 µM)
5 | N#CSCSc1nsnc1-c1ccc(Br)cc1 [Example XVII, 4-(4-Bromophenyl)-3-thiocyanatomethylthio-1,2,5-thiadiazole] | > 500 µg/mL | > 500 µg/mL | 9 µg/mL (≈ 26.1 µM) | > 500 µg/mL | > 500 µg/mL | > 500 µg/mL | > 500 µg/mL | > 500 µg/mL | > 500 µg/mL | > 500 µg/mL | > 500 µg/mL | > 500 µg/mL | > 500 µg/mL | > 500 µg/mL | > 500 µg/mL | > 500 µg/mL | > 500 µg/mL |  | 9 µg/mL (≈ 26.1 µM) | 250 µg/mL (≈ 726 µM) | MIC [4, 16]: 9 µg/mL (≈ 26.1 µM); MIC [6, 33]: 9 µg/mL (≈ 26.1 µM); MIC (Candida albicans (Ca); [20]): 500 µg/mL (≈ 1450 µM); MIC (Trichoderma viride (Tv); [37]): 500 µg/mL (≈ 1450 µM); MIC (Aspergillus niger (An); 72 h, pH 5.5, read-out: Minimum Inhibitory Concentration, An): 25 µg/mL (≈ 72.6 µM); MIC (Bacillus subtilis (Bs); [29]): 25 µg/mL (≈ 72.6 µM)
